Assays:
OVCAR3 H2B-GFP cells = assay: In vitro platinum-sensitive relapse model, live cell number by time-lapse imaging; assay type: cell-based; conditions: six days of treatment, FIG. 1C carboplatin 6.25 μM, FIG. 1D cisplatin 50 μM
From the text: FIGS. 1A-1E show the in vitro modeling of non-inherited drug resistance. […] FIGS. 1B-1E show relapse dynamics. Length of drug treatments are indicated as red shaded areas within the graphs. […] While much effort has been focused on experimental models to study the emergence of platinum-resistance (Cunnea & Stronach, Front Oncol 4:81 (2014)), little attention has been given to the development of robust methods to model platinum-sensitive relapse. As the clinical classification of relapse is based both on the effectiveness of the treatment and the time to recurrence, the present study aimed to establish a system that can capture both these aspects. Analogous to the CA125 levels that are used to monitor disease progression in patients, direct measurement of cell number was used to monitor response in vitro. To this end, an OVCAR3 H2B-GFP cell line was generated. OVCAR3 is a commonly used HGSOC model and the H2B-GFP allows the easy quantification of the number of live cells during the course of drug treatment. […] This response was quantified based on time-lapse images and a striking similarity was found between the pattern of platinum-sensitive relapse observed in patients (FIG. 1B), as measured by CA125 levels, and the pattern observed in vitro in this study (FIG. 1C-D). […]

[1] = test system: Watermelon-transduced PC-9 cells; assay: Sensitivity of Watermelon-transduced PC-9 cells to EGFR-TKIs, number of mCherry objects; assay type: cell-based; conditions: varying concentrations (FIGS. 6B and 6C)
From the text: FIGS. 6A-6D show the modeling of non-inherited drug resistance of PC-9 cells to EGFR tyrosine kinase inhibitors (EGFR-TKI).

Row | Compound | response of cells to platinum treatment (number of live cells) (OVCAR3 H2B-GFP cells) | sensitivity of cells to EGFR-TKI (number of mCherry objects) [1]
1 | N.N.O=C([O-])C1(C(=O)[O-])CCC1.[Pt+2] [carboplatin] | the majority of cells died | –
2 | C=CC(=O)Nc1cc(Nc2nccc(-c3cn(C)c4ccccc34)n2)c(OC)cc1N(C)CCN(C)C [osimertinib] | – | sensitive
3 | N.N.[Cl][Pt][Cl] [cisplatin] | the majority of cells died | –

Source: patent publication US20200080076A1, “Expressed Barcode Libraries and Uses Thereof” (The Broad Institute, Inc., priority 2018, published 2020)
